These results are taken from patent US20110015119A1, “NOVEL SEMI-SYNTHETIC GLYCOPEPTIDES AS ANTIBACTERIAL AGENTS” (LEAD THERAPEUTICS, INC., priority 2009, published 2011).

As usually defined, the MIC is the least concentration at which growth counts as inhibited.

What all share (assay type): cell-based
Test [1] relates to Staphylococcus aureus 100 (ATCC 29213). Description: MIC by broth microdilution, SA 100. The procedure, abridged:
(§1)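 Susceptibility testing follows the NCCLS broth microdilution protocol in Mueller-Hinton broth, on clinical isolates.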

The test system of test [2] is Staphylococcus aureus 757 (MRSA). Description: MIC by broth microdilution, SA 757. The following applies: read-out: MIC SA 757. The procedure, abridged:
as §1
For orientation: Dilution methods test growth across graded concentrations, often in twofold steps.

Test [3] has as its system Staphylococcus aureus 2012 (VISA). The test is described as follows: MIC by broth microdilution, SA 2012. The following applies: class symbols. The procedure, abridged: as §1
The test system of test [4] is Staphylococcus epidermidis 835. The test is described as follows: MIC by broth microdilution, SE 835. The procedure, abridged:
as §1

Test [5] relates to Staphylococcus epidermidis 831 (MRSE). The test is described as follows: MIC by broth microdilution, SE 831. The following applies: read-out: MIC SE 831. The procedure, abridged:
as §1

Test [6] relates to Enterococcus faecalis 101 (ATCC 29212). Description: MIC by broth microdilution, EFc 101. The following applies: class symbols. The procedure, abridged: as §1
Test [7] has as its system Enterococcus faecalis 848 (VRE, Van A). Description: MIC by broth microdilution, EFc 848. The following applies: class symbols. The procedure, abridged:
as §1

Another test deals with Enterococcus faecium 800. The test is described as follows: MIC by broth microdilution, EFcm 800. The procedure, abridged: as §1
In test [8] the test system is Enterococcus faecium 752 (VRE, Van A). The test is described as follows: MIC by broth microdilution, EFcm 752. The following applies: class symbols. The procedure, abridged: as §1
For test [9], the system named is Streptococcus pneumoniae 1195 (ATCC 49619). Description: MIC by broth microdilution, SPNE 1195. The procedure, abridged: as §1
Test [10] relates to Streptococcus pyogenes 712. The test is described as follows: MIC by broth microdilution, SPY 712. The procedure, abridged:
as §1

[11] abbreviates: Staphylococcus aureus, ATCC29213, read-out: MIC SA 100.
[12] abbreviates: Staphylococcus aureus, VISA, read-out: MIC SA 2012, Staphylococcus aureus 2012 (VISA).
[13] abbreviates: Staphylococcus epidermidis, 835, read-out: MIC SE 835.
Where [14] appears, read: Staphylococcus epidermidis, MRSE.
Setting [15] is: Enterococcus faecalis, ATCC29212, read-out: MIC E FC 101, Enterococcus faecalis 101 (ATCC 29212).
The mark [16] stands for this setting: Enterococcus faecalis, VRE, read-out: MIC E FC 848, Enterococcus faecalis 848 (VRE, Van A).
Where [17] appears, read: Enterococcus faecium, 800, read-out: MIC E FCM 800.
Setting [18] is: Enterococcus faecium, VRE, read-out: MIC E FCM 752, Enterococcus faecium 752 (VRE, Van A).
Where [19] appears, read: Streptococcus pneumoniae, ATCC49619, read-out: MIC S PNE 1195.
Setting [20] is: Streptococcus pyogenes, 712, read-out: MIC S PYO 712.

Converted amounts (≈) assume the structure as drawn. Where two headings read alike, the source gives them in different places.

Regarding `CCCCOc1ccc(CCNC(=O)Oc2cc(O)c3c(c2)[C@@H](C(=O)NC2C4CC5CC(C4)CC2C5)NC(=O)[C@H]2NC(=O)[C@H](NC(=O)[C@@H]4NC(=O)[C@H](CC(N)=O)NC(=O)[C@H](NC(=O)[C@@H](CC(C)C)NC)[C@H](O)c5ccc(c(Cl)c5)Oc5cc4cc(c5O[C@@H]4O[C@H](CO)[C@@H](O)[C@H](O)[C@H]4O[C@H]4C[C@](C)(N)[C@H](O)[C@H](C)O4)Oc4ccc(cc4Cl)[C@H]2O)c2ccc(O)c-3c2)cc1` (some centres unmarked) [Compound 339], the MIC fell in the range of 0.01 to 0.5 µg/mL (≈ 0.00555 to 0.278 µM) in [1] (setting [11]); 0.01 to 0.5 µg/mL (≈ 0.00555 to 0.278 µM) in test [2] (Staphylococcus aureus, MRSA); 0.5 to 1 µg/mL (≈ 0.278 to 0.555 µM) in [3] (setting [12]); 0.01 to 0.5 µg/mL (≈ 0.00555 to 0.278 µM) in [4] (setting [13]); 0.01 to 0.5 µg/mL (≈ 0.00555 to 0.278 µM) in [5] (setting [14]); 0.01 to 0.5 µg/mL (≈ 0.00555 to 0.278 µM) in [6] (setting [15]). In addition, the minimal inhibitory concentration (MIC) in [7] (setting [16]) is 4 to 8 µg/mL (≈ 2.22 to 4.44 µM); in the test on Enterococcus faecium 800 (setting [17]), 0.01 to 0.5 µg/mL (≈ 0.00555 to 0.278 µM); in [8] (setting [18]), 0.5 to 1 µg/mL (≈ 0.278 to 0.555 µM); in test [9] (setting [19]) it was 0.01 to 0.5 µg/mL (≈ 0.00555 to 0.278 µM); in [10] (setting [20]), 0.01 to 0.5 µg/mL (≈ 0.00555 to 0.278 µM).
For `CCCCCCc1ccc(NC(=O)Oc2cc(O)c3c(c2)[C@@H](C(=O)NC2C4CC5CC(C4)CC2C5)NC(=O)[C@H]2NC(=O)[C@H](NC(=O)[C@@H]4NC(=O)[C@H](CC(N)=O)NC(=O)[C@H](NC(=O)[C@@H](CC(C)C)NC)[C@H](O)c5ccc(c(Cl)c5)Oc5cc4cc(c5O[C@@H]4O[C@H](CO)[C@@H](O)[C@H](O)[C@H]4O[C@H]4C[C@](C)(N)[C@H](O)[C@H](C)O4)Oc4ccc(cc4Cl)[C@H]2O)c2ccc(O)c-3c2)cc1` (some centres unmarked) [Compound 332], the minimal inhibitory concentration (MIC) lay within 1 to 2 µg/mL (≈ 0.56 to 1.12 µM) in [1] (setting [11]); 1 to 2 µg/mL (≈ 0.56 to 1.12 µM) in test [2] (Staphylococcus aureus, MRSA); 4 to 8 µg/mL (≈ 2.24 to 4.48 µM) in test [3] (setting [12]); 1 to 2 µg/mL (≈ 0.56 to 1.12 µM) in [4] (setting [13]); 0.5 to 1 µg/mL (≈ 0.28 to 0.56 µM) in test [5] (setting [14]); 1 to 2 µg/mL (≈ 0.56 to 1.12 µM) in test [6] (setting [15]). Further, the minimum inhibitory concentration (MIC) in test [7] (setting [16]) was above 16 µg/mL; with Enterococcus faecium 800 (setting [17]), 0.5 to 1 µg/mL (≈ 0.28 to 0.56 µM); in [8] (setting [18]), 8 to 16 µg/mL (≈ 4.48 to 8.96 µM); in test [9] (setting [19]), 0.01 to 0.5 µg/mL (≈ 0.0056 to 0.28 µM); in test [10] (setting [20]) it was 0.01 to 0.5 µg/mL (≈ 0.0056 to 0.28 µM).
`CCCCCCc1ccc(S(=O)(=O)NCCCCCCNC(=O)Oc2cc(O)c3c(c2)[C@@H](C(=O)O)NC(=O)[C@H]2NC(=O)[C@H](NC(=O)[C@@H]4NC(=O)[C@H](CC(N)=O)NC(=O)[C@H](NC(=O)[C@@H](CC(C)C)NC)[C@H](O)c5ccc(c(Cl)c5)Oc5cc4cc(c5O[C@@H]4O[C@H](CO)[C@@H](O)[C@H](O)[C@H]4O[C@H]4C[C@](C)(N)[C@H](O)[C@H](C)O4)Oc4ccc(cc4Cl)[C@H]2O)c2ccc(O)c-3c2)cc1` (atropisomer, axis not shown) [Compound 352]: the minimum inhibitory concentration (MIC) lay in the range of 0.01 to 0.5 µg/mL (≈ 0.00551 to 0.275 µM) in [1] (setting [11]); 0.01 to 0.5 µg/mL (≈ 0.00551 to 0.275 µM) in test [2] (Staphylococcus aureus, MRSA); 0.01 to 0.5 µg/mL (≈ 0.00551 to 0.275 µM) in test [3] (setting [12]); 0.01 to 0.5 µg/mL (≈ 0.00551 to 0.275 µM) in [4] (setting [13]); 0.01 to 0.5 µg/mL (≈ 0.00551 to 0.275 µM) in test [5] (setting [14]); 0.01 to 0.5 µg/mL (≈ 0.00551 to 0.275 µM) in test [6] (setting [15]). The minimal inhibitory concentration (MIC) in [7] (setting [16]) was in the range of 2 to 4 µg/mL (≈ 1.1 to 2.2 µM); with Enterococcus faecium 800 (setting [17]) it was 0.01 to 0.5 µg/mL (≈ 0.00551 to 0.275 µM); in test [8] (setting [18]) it was 0.5 to 1 µg/mL (≈ 0.275 to 0.551 µM); in test [9] (setting [19]), 0.01 to 0.5 µg/mL (≈ 0.00551 to 0.275 µM); in test [10] (setting [20]), 0.01 to 0.5 µg/mL (≈ 0.00551 to 0.275 µM).
`CCCCCCc1ccc(S(=O)(=O)NCCCCCCNCc2c(O)cc3c(c2O)-c2cc(ccc2O)[C@H]2NC(=O)[C@@H]4NC(=O)[C@H](CC(N)=O)NC(=O)[C@H](NC(=O)[C@@H](CC(C)C)NC)[C@H](O)c5ccc(c(Cl)c5)Oc5cc4cc(c5O[C@@H]4O[C@H](CO)[C@@H](O)[C@H](O)[C@H]4O[C@H]4C[C@](C)(NC(=O)[C@@H](C)N)[C@H](O)[C@H](C)O4)Oc4ccc(cc4Cl)[C@@H](O)[C@H](NC2=O)C(=O)N[C@@H]3C(=O)O)cc1` (atropisomer, axis not shown) [Compound 342]: the MIC fell in the range of 0.01 to 0.5 µg/mL (≈ 0.00534 to 0.267 µM) in test [1] (ATCC29213, Staphylococcus aureus 100 (ATCC 29213), class symbols, read-out: MIC SA 100); 0.01 to 0.5 µg/mL (≈ 0.00534 to 0.267 µM) in test [2] (Staphylococcus aureus 757 (MRSA), class symbols); 0.01 to 0.5 µg/mL (≈ 0.00534 to 0.267 µM) in test [3] (Staphylococcus aureus 2012 (VISA), read-out: MIC SA 2012); 0.01 to 0.5 µg/mL (≈ 0.00534 to 0.267 µM) in test [4] (Staphylococcus epidermidis 835, class symbols, read-out: MIC SE 835); 0.01 to 0.5 µg/mL (≈ 0.00534 to 0.267 µM) in [5] (Staphylococcus epidermidis 831 (MRSE), class symbols); 0.01 to 0.5 µg/mL (≈ 0.00534 to 0.267 µM) in test [6] (ATCC29212, Enterococcus faecalis 101 (ATCC 29212), read-out: MIC E FC 101). For the same compound, the MIC in test [7] (Enterococcus faecalis 848 (VRE, Van A), read-out: MIC E FC 848) fell in the range of 4 to 8 µg/mL (≈ 2.14 to 4.27 µM); in the test with Enterococcus faecium 800 (Enterococcus faecium 800, class symbols, read-out: MIC E FCM 800), 0.01 to 0.5 µg/mL (≈ 0.00534 to 0.267 µM); in test [8] (Enterococcus faecium 752 (VRE, Van A), read-out: MIC E FCM 752) it was 0.5 to 1 µg/mL (≈ 0.267 to 0.534 µM); in [9] (ATCC49619, Streptococcus pneumoniae 1195 (ATCC 49619), class symbols, read-out: MIC S PNE 1195), 0.01 to 0.5 µg/mL (≈ 0.00534 to 0.267 µM); in test [10] (Streptococcus pyogenes 712, class symbols, read-out: MIC S PYO 712) it was 0.01 to 0.5 µg/mL (≈ 0.00534 to 0.267 µM).
